In ChEMBL document CHEMBL1201862, “PubChem BioAssay data set” (2004):
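Protocol summary: plate cells (96-well), add compound at 5 concentrations, incubate 48 h, interpolate endpoints linearly. Abbreviation: GI50, concentration required for 50% inhibition of growth.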 The source made the active and inactive calls. Rule as the data show it: active = GI50 up to about 1.1 µM and inactive = higher.

Legend:
Experiment in all cases: NCI-60 cell line screen, 48 h
CAKI-1 = system: CAKI-1
SF-295 = system: SF-295
OVCAR-4 = system: OVCAR-4
MCF7 = system: MCF7
RPMI-8226 = system: RPMI-8226
SK-MEL-5 = system: SK-MEL-5
SW-620 = system: SW-620
NCI/ADR-RES = system: NCI/ADR-RES
SNB-19 = system: SNB-19
HOP-62 = system: HOP-62
BT-549 = system: BT-549
OVCAR-3 = system: OVCAR-3
COLO 205 = system: COLO 205
HCC 2998 = system: HCC 2998
IGROV-1 = system: IGROV-1
NCI-H522 = system: NCI-H522
SN12C = system: SN12C
TK-10 = system: TK-10
NCI-H460 = system: NCI-H460

With O=C1c2ccccc2C(=O)N1C1(C(=O)NC2(C(=O)O)CCCC2)CCCC1 the GI50 (CAKI-1) was > 100 µM (inactive), the GI50 (SF-295) was > 100 µM (inactive) and the GI50 (OVCAR-4) was > 100 µM (inactive). For the same compound, the GI50 (MCF7) was > 100 µM (inactive), the GI50 (RPMI-8226) was > 100 µM (inactive) and the GI50 (SK-MEL-5) was > 100 µM (inactive). The GI50 (SW-620) was > 100 µM (inactive), the GI50 (NCI/ADR-RES) was > 100 µM (inactive) and the GI50 (SNB-19) was > 100 µM (inactive). For the same compound, the GI50 (HOP-62) was > 100 µM (inactive), the GI50 (BT-549) was > 100 µM (inactive) and the GI50 (OVCAR-3) was > 100 µM (inactive). The GI50 (COLO 205) was > 100 µM (inactive), the GI50 (HCC 2998) was > 100 µM (inactive) and the GI50 (IGROV-1) was > 100 µM (inactive). The GI50 (NCI-H522) was > 100 µM (inactive), the GI50 (SN12C) was > 100 µM (inactive) and the GI50 (TK-10) was > 100 µM (inactive).

C1CNCCN2CCCNCCN(C1)CC2 was tested, and the GI50 (CAKI-1) was > 100 µM (inactive), the GI50 (SF-295) was > 100 µM (inactive) and the GI50 (OVCAR-4) was > 100 µM (inactive). The GI50 (MCF7) was > 100 µM (inactive), the GI50 (RPMI-8226) was > 100 µM (inactive) and the GI50 (SK-MEL-5) was > 100 µM (inactive). For the same compound, the GI50 (SW-620) was > 100 µM (inactive), the GI50 (NCI/ADR-RES) was > 100 µM (inactive) and the GI50 (SNB-19) was > 100 µM (inactive). The GI50 (HOP-62) was > 100 µM (inactive), the GI50 (BT-549) was > 100 µM (inactive) and the GI50 (OVCAR-3) was > 100 µM (inactive). The GI50 (COLO 205) was > 100 µM (inactive), the GI50 (IGROV-1) was > 100 µM (inactive) and the GI50 (NCI-H522) was > 100 µM (inactive). The GI50 (NCI-H460) was > 100 µM (inactive), the GI50 (SN12C) was > 100 µM (inactive) and the GI50 (TK-10) was > 100 µM (inactive).

For O=C(/C=C/c1ccc(-c2ccccc2)cc1)NCc1ccc(C(=O)NCc2ccccc2)cc1, the GI50 (CAKI-1) was > 100 µM (inactive), the GI50 (SF-295) was > 100 µM (inactive) and the GI50 (OVCAR-4) was > 100 µM (inactive). For the same compound, the GI50 (MCF7) was > 100 µM (inactive), the GI50 (SK-MEL-5) was > 100 µM (inactive) and the GI50 (SW-620) was > 100 µM (inactive). The GI50 (NCI/ADR-RES) was > 100 µM (inactive), the GI50 (SNB-19) was > 100 µM (inactive) and the GI50 (HOP-62) was 57.1 µM (inactive). The GI50 (BT-549) was > 100 µM (inactive), the GI50 (OVCAR-3) was > 100 µM (inactive) and the GI50 (COLO 205) was > 100 µM (inactive). For the same compound, the GI50 (HCC 2998) was > 100 µM (inactive), the GI50 (IGROV-1) was > 100 µM (inactive) and the GI50 (NCI-H522) was > 100 µM (inactive). For the same compound, the GI50 (NCI-H460) was > 100 µM (inactive), the GI50 (SN12C) was > 100 µM (inactive) and the GI50 (TK-10) was > 100 µM (inactive).

With Cc1cc(Cc2cc(C)c(N)cc2N)c(N)cc1N the GI50 (CAKI-1) was > 100 µM (inactive), the GI50 (SF-295) was > 100 µM (inactive) and the GI50 (OVCAR-4) was > 100 µM (inactive). For the same compound, the GI50 (MCF7) was > 100 µM (inactive), the GI50 (RPMI-8226) was > 100 µM (inactive) and the GI50 (SK-MEL-5) was > 100 µM (inactive). For the same compound, the GI50 (SW-620) was > 100 µM (inactive), the GI50 (NCI/ADR-RES) was > 100 µM (inactive) and the GI50 (SNB-19) was > 100 µM (inactive). The GI50 (HOP-62) was 93.5 µM (inactive), the GI50 (BT-549) was > 100 µM (inactive) and the GI50 (OVCAR-3) was > 100 µM (inactive). For the same compound, the GI50 (COLO 205) was > 100 µM (inactive), the GI50 (IGROV-1) was 4.38 µM (inactive) and the GI50 (NCI-H522) was 88.9 µM (inactive). For the same compound, the GI50 (NCI-H460) was 77.3 µM (inactive), the GI50 (SN12C) was > 100 µM (inactive) and the GI50 (TK-10) was > 100 µM (inactive).

In the case of O=C(O)c1ccccc1-c1ccccc1C(=O)Nc1ccc2c(c1)nc(O)c1ccccc12, the GI50 (CAKI-1) is reported as > 100 µM (inactive), the GI50 (SF-295) is reported as > 100 µM (inactive) and the GI50 (OVCAR-4) is reported as > 100 µM (inactive). For the same compound, the GI50 (MCF7) was > 100 µM (inactive), the GI50 (RPMI-8226) was > 100 µM (inactive) and the GI50 (SK-MEL-5) was > 100 µM (inactive). The GI50 (SW-620) was > 100 µM (inactive), the GI50 (NCI/ADR-RES) was > 100 µM (inactive) and the GI50 (SNB-19) was 83.4 µM (inactive). The GI50 (HOP-62) was > 100 µM (inactive), the GI50 (BT-549) was 52.4 µM (inactive) and the GI50 (OVCAR-3) was > 100 µM (inactive). For the same compound, the GI50 (COLO 205) was > 100 µM (inactive), the GI50 (IGROV-1) was 94.4 µM (inactive) and the GI50 (NCI-H522) was 61.8 µM (inactive). For the same compound, the GI50 (NCI-H460) was > 100 µM (inactive), the GI50 (SN12C) was > 100 µM (inactive) and the GI50 (TK-10) was > 100 µM (inactive).

In the case of O=C(Cc1nc2ncccc2[nH]c1=O)c1c[nH]c2ccccc12, the GI50 (CAKI-1) is reported as 17.4 µM (inactive), the GI50 (SF-295) is reported as 16.5 µM (inactive) and the GI50 (MCF7) is reported as 16.9 µM (inactive). For the same compound, the GI50 (RPMI-8226) was 16.7 µM (inactive), the GI50 (SK-MEL-5) was 23.1 µM (inactive) and the GI50 (SW-620) was 17.1 µM (inactive). For the same compound, the GI50 (NCI/ADR-RES) was 29.4 µM (inactive), the GI50 (SNB-19) was 18.3 µM (inactive) and the GI50 (HOP-62) was 18.7 µM (inactive). For the same compound, the GI50 (BT-549) was 29.4 µM (inactive), the GI50 (OVCAR-3) was 18 µM (inactive) and the GI50 (COLO 205) was 16.3 µM (inactive). For the same compound, the GI50 (HCC 2998) was 19.8 µM (inactive), the GI50 (IGROV-1) was 17.3 µM (inactive) and the GI50 (NCI-H522) was 16.6 µM (inactive). The GI50 (NCI-H460) was 17.3 µM (inactive), the GI50 (SN12C) was 18.2 µM (inactive) and the GI50 (TK-10) was 16.7 µM (inactive).

In the case of Cc1ccc2cc3c(ccc4ccccc43)c3c2c1CC3 [3-METHYLCHOLANTHRENE], the GI50 (CAKI-1) is reported as > 100 µM (inactive), the GI50 (SF-295) is reported as > 100 µM (inactive) and the GI50 (MCF7) is reported as 0.159 µM (active). The GI50 (RPMI-8226) was > 100 µM (inactive), the GI50 (SK-MEL-5) was > 100 µM (inactive) and the GI50 (SW-620) was > 100 µM (inactive). The GI50 (NCI/ADR-RES) was > 100 µM (inactive), the GI50 (SNB-19) was > 100 µM (inactive) and the GI50 (HOP-62) was > 100 µM (inactive). For the same compound, the GI50 (BT-549) was > 100 µM (inactive), the GI50 (OVCAR-3) was > 100 µM (inactive) and the GI50 (COLO 205) was > 100 µM (inactive). For the same compound, the GI50 (HCC 2998) was > 100 µM (inactive), the GI50 (IGROV-1) was > 100 µM (inactive) and the GI50 (NCI-H522) was > 100 µM (inactive). For the same compound, the GI50 (NCI-H460) was > 100 µM (inactive), the GI50 (SN12C) was > 100 µM (inactive) and the GI50 (TK-10) was > 100 µM (inactive).
